The test system of experiment [1] is UWB1.289 cells. Nature of the experiment: Cell proliferation inhibitory activity in BRCA1/2-mutant or HRD-positive cells (Cell Titer-Glo). The class given is cell-based. The note with it: UWB1289; UWB1.289 cells, 144 hours after compound treatment, Cell Titer-Glo, 1.5 nM to 10 µM; read-out: GI50 UWB1.289 BRCA1 mut. In a few lines: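 GI50 from CellTiter-Glo luminescence after 144 h compound exposure at 37 °C. Cells seeded at 1,000 per well in MEBM/RPMI1640 mix 16–24 h beforehand; […] from 10 µM down to 1.5 nM final (3-fold steps).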
A general note: ATP-based viability assays read luminescence as a measure of living cells.

In experiment [2] the target is T1, recombinant USP1 protein (Homo sapiens, UniProt O94782, DEL125-138/DEL229-408/DEL608-737).
T1 sequence (O94782 with tags, fused parts or gaps DEL125-138/DEL229-408/DEL608-737): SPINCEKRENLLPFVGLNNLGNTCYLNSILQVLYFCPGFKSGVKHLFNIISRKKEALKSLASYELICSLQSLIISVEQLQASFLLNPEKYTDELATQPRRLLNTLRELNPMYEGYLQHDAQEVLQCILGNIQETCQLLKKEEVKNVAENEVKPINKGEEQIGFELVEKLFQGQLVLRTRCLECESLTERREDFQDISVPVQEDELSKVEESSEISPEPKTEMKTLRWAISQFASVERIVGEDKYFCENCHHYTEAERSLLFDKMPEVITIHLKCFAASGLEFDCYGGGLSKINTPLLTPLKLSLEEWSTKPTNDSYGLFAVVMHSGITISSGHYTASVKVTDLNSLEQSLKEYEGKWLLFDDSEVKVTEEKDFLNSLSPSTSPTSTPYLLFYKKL
Nature of the experiment: Binding affinity to recombinant USP1 protein by differential scanning fluorimetry. The note with it: compound 100 µM; 0.03 mg/mL USP1 (Δ1-66, Δ125-138, Δ229-408, Δ608-737); Tm with compound minus Tm with DMSO; read-out: ΔTm (°C). The procedure, abridged: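 Thermal shift readout: ΔTm is the compound-well melting temperature less the DMSO-well value, measured by real-time PCR. Compounds tested at 100 µM final against 0.03 mg/mL truncated USP1 (Δ1-66, Δ125-138, Δ229-408, Δ608-737) in pH 8.0 Tris buffer containing 150 mM NaCl, 2% glycerol, 1 mM DTT.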
For orientation: DSF heats the sample and reads unfolding from a dye or from intrinsic fluorescence.

These results are taken from EP4806898A1, “HETEROARYL DERIVATIVE COMPOUND AND USE THEREOF” (Voronoi Inc., priority 2023, dated 2025).

A word on the GI50: it is the concentration that inhibits growth by half. Usually ΔTm stands for the change in melting temperature against a reference sample.

Molecules are shown by their SMILES.

Consider `COc1ncnc(C2CC2)c1-c1ncc2cc(C(=O)NCC(C)(C)O)n(Cc3ccc(-c4nc(C(F)(F)F)cn4C(C)C)cc3)c2n1` [Example 61, 2-(4-cyclopropyl-6-methoxypyrimidin-5-yl)-N-(2-hydroxy-2-methylpropyl)-7-(4-(1-isopropyl-4-(trifluoromethyl)-1H-imidazol-2-yl)benzyl)-7H-pyrrolo[2,3-d]pyrimidine-6-carboxamide], for which the GI50 in experiment [1] was less than 100 nM. Besides, in experiment [2], the ΔTm at 100 µM is more than 5 °C.

With `C=CCCNC(=O)c1cc2cnc(-c3c(OC)ncnc3C3CC3)nc2n1Cc1ccc(-c2nc(C(F)(F)F)cn2C(C)C)cc1` [Example 64, N-(but-3-en-1-yl)-2-(4-cyclopropyl-6-methoxypyrimidin-5-yl)-7-(4-(1-isopropyl-4-(trifluoromethyl)-1H-imidazol-2-yl)benzyl)-7H-pyrrolo[2,3-d]pyrimidine-6-carboxamide], in experiment [1], the GI50 lay in the range of 100 to 500 nM. The ΔTm at 100 µM in experiment [2] was more than 5 °C.

On to `COc1ncnc(C2CC2)c1-c1ncc2cc(C(=O)N3C[C@H]4C[C@@H]3CO4)n(Cc3ccc(-c4nc(C(F)(F)F)cn4C(C)C)cc3)c2n1` [Example 65, ((1R,4R)-2-oxa-5-azabicyclo[2.2 .1]heptan-5-yl)(2-(4-cyclopropyl-6-methoxypyrimidin-5-yl)-7-(4-(1-isopropyl-4-(trifluoromethyl)-1H-imidazol-2-yl)benzyl)-7H-pyrrolo[2,3-d]pyrimidin-6-yl)methanone], for which the GI50 in experiment [1] fell in the range of 100 to 500 nM. In experiment [2], the ΔTm at 100 µM is more than 5 °C.

Turning to `COc1ncnc(C2CC2)c1-c1ncc2cc(C(=O)NC[C@@H]3CCO3)n(Cc3ccc(-c4nc(C(F)(F)F)cn4C(C)C)cc3)c2n1` [Example 66, (S)-2-(4-cyclopropyl-6-methoxypyrimidin-5-yl)-7-(4-(1-isopropyl-4-(trifluoromethyl)-1H-imidazol-2-yl)benzyl)-N-(oxetan-2-ylmethyl)-7H-pyrrolo[2,3-d]pyrimidine-6-carboxamide], the GI50 in experiment [1] was less than 100 nM. Also, the ΔTm at 100 µM in experiment [2] was more than 5 °C.

With `COc1ncnc(C2CC2)c1-c1ncc2cc(C(=O)N3CCCC(O)C3)n(Cc3ccc(-c4nc(C(F)(F)F)cn4C(C)C)cc3)c2n1` (stereo not shown) [Example 67, (2-(4-cyclopropyl-6-methoxypyrimid in-5-yl)-7-(4-(1-isopropyl-4-(trifluoromethyl)-1H-imidazol-2-yl)benzyl)-7H-pyrrolo[2,3-d]pyrimidin-6-yl) (3-hydroxypiperid in-1-yl)methanone], the GI50 in experiment [1] was less than 100 nM. In experiment [2], the ΔTm at 100 µM was more than 5 °C.

On to `CCn1cc(C(F)(F)F)nc1-c1ccc(Cn2c(C(=O)NC)cc3cnc(-c4c(OC)ncnc4C4CC4)nc32)cc1` [Example 68, 2-(4-cyclopropyl-6-methoxypyrimidin-5-yl)-7-(4-(1-ethyl-4-(trifluoromethyl)-1H-imidazol-2-yl)benzyl)-N-methyl-7H-pyrrolo[2,3-d]pyrimidine-6-carboxamide], for which the GI50 in experiment [1] was less than 100 nM. For the same compound, the ΔTm at 100 µM in experiment [2] was more than 5 °C.

On to `COc1ncnc(C2CC2)c1-c1ncc2cc(C(=O)NC3CCN(C)CC3)n(Cc3ccc(-c4nc(C(F)(F)F)cn4C(C)C)cc3)c2n1` [Example 69, 2-(4-cyclopropyl-6-methoxypyrimidin-5-yl)-7-(4-(1-isopropyl-4-(trifluoromethyl)-1H-imidazol-2-yl)benzyl)-N-(1-methylpiperidin-4-yl)-7H-pyrrolo[2,3-d]pyrimidine-6-carboxamide], for which the GI50 in experiment [1] is less than 100 nM. Moreover, in experiment [2], the ΔTm at 100 µM was more than 5 °C.

On to `COc1ncnc(C2CC2)c1-c1ncc2cc(C(=O)N(C)CC(F)(F)F)n(Cc3ccc(-c4nc(C(F)(F)F)cn4C(C)C)cc3)c2n1` [Example 70, 2-(4-cyclopropyl-6-methoxypyrimidin-5-yl)-7-(4-(1-isopropyl-4-(trifluoromethyl)-1H-imidazol-2-yl)benzyl)-N-methyl-N-(2,2,2-trifluoroethyl)-7H-pyrrolo[2,3-d]pyrimidine-6-carboxamide], for which, in experiment [1], the GI50 lay in the range of 100 to 500 nM. The ΔTm at 100 µM in experiment [2] was more than 5 °C.

Take `COCC1CN(C(=O)c2cc3cnc(-c4c(OC)ncnc4C4CC4)nc3n2Cc2ccc(-c3nc(C(F)(F)F)cn3C(C)C)cc2)C1` [Example 71, (2-(4-cyclopropyl-6-methoxypyrimid in-5-yl)-7-(4-(1-isopropyl-4-(trifluoromethyl)-1H-imidazol-2-yl)benzyl)-7H-pyrrolo[2,3-d]pyrimidin-6-yl) (3-(methoxymethyl)azetidin-1-yl)methanone]: in experiment [1], the 50% growth inhibitory concentration (GI50) is less than 100 nM. The ΔTm at 100 µM in experiment [2] was more than 5 °C.

Turning to `COc1ncnc(C2CC2)c1-c1ncc2cc(C(=O)N3CCC(F)(F)C3)n(Cc3ccc(-c4nc(C(F)(F)F)cn4C(C)C)cc3)c2n1` [Example 73, (2-(4-cyclopropyl-6-methoxypyrimid in-5-yl)-7-(4-(1-isopropyl-4-(trifluoromethyl)-1H-imidazol-2-yl)benzyl)-7H-pyrrolo[2,3-d]pyrimidin-6-yl)(3,3-difluoropyrrolidin-1-yl)methanone], the GI50 in experiment [1] is 100 to 500 nM. Further, in experiment [2], the ΔTm at 100 µM is more than 5 °C.

Take `COc1ncnc(C2CC2)c1-c1ncc2cc(C(=O)N3CC(CS(C)(=O)=O)C3)n(Cc3ccc(-c4nc(C(F)(F)F)cn4C(C)C)cc3)c2n1` [Example 75, (2-(4-cyclopropyl-6-methoxypyrimid in-5-yl)-7-(4-(1-isopropyl-4-(trifluoromethyl)-1H-imidazol-2-yl)benzyl)-7H-pyrrolo[2,3-d]pyrimidin-6-yl) (3-((methylsulfonyl)methyl)azetidin-1-yl)methanone]: the GI50 in experiment [1] lay within 100 to 500 nM. The ΔTm at 100 µM in experiment [2] is more than 5 °C.

As to `COc1ncnc(C2CC2)c1-c1ncc2cc(C(=O)NC3CCS(=O)(=O)C3)n(Cc3ccc(-c4nc(C(F)(F)F)cn4C(C)C)cc3)c2n1` (stereo not shown) [Example 78, 2-(4-cyclopropyl-6-methoxypyrimidin-5-yl)-N-(1,1-dioxidotetrahydrothiophen-3-yl)-7-(4-(1-isopropyl-4-(trifluoromethyl)-1H-imidazol-2-yl)benzyl)-7H-pyrrolo[2,3-d]pyrimidine-6-carboxamide], the GI50 in experiment [1] is 100 to 500 nM. In addition, the shift in melting temperature (ΔTm) at 100 µM in experiment [2] was more than 5 °C.

On to `COc1ncnc(C2CC2)c1-c1ncc2cc(C(=O)NC3(C)CC3)n(Cc3ccc(-c4nc(C(F)(F)F)cn4C(C)C)cc3)c2n1` [Example 79, 2-(4-cyclopropyl-6-methoxypyrimidin-5-yl)-7-(4-(1-isopropyl-4-(trifluoromethyl)-1H-imidazol-2-yl)benzyl)-N-(1-methylcyclopropyl)-7H-pyrrolo[2,3-d]pyrimidine-6-carboxamide], for which, in experiment [1], the 50% growth inhibitory concentration (GI50) was in the range of 100 to 500 nM. The ΔTm at 100 µM in experiment [2] was more than 5 °C.

Consider `COc1ncnc(C2CC2)c1-c1ncc2cc(C(=O)NCC3CCC(F)(F)C3)n(Cc3ccc(-c4nc(C(F)(F)F)cn4C(C)C)cc3)c2n1` (stereo not shown) [Example 80, 2-(4-cyclopropyl-6-methoxypyrimidin-5-yl)-N-((3,3-difluorocyclopentyl)methyl)-7-(4-(1-isopropyl-4-(trifluoromethyl)-1H-imidazol-2-yl)benzyl)-7H-pyrrolo[2,3-d]pyrimidine-6-carboxamide], for which, in experiment [1], the GI50 fell in the range of 100 to 500 nM. The ΔTm at 100 µM in experiment [2] was more than 5 °C.

With `CC[C@H](C)NC(=O)c1cc2cnc(-c3c(OC)ncnc3C3CC3)nc2n1Cc1ccc(-c2nc(C(F)(F)F)cn2C(C)C)cc1` [Example 82, (S)-N-(sec-butyl)-2-(4-cyclopropyl-6-methoxypyrimidin-5-yl)-7-(4-(1-isopropyl-4-(trifluoromethyl)-1H-imidazol-2-yl)benzyl)-7H-pyrrolo[2,3-d]pyrimidine-6-carboxamide], the GI50 in experiment [1] was less than 100 nM. In addition, in experiment [2], the ΔTm at 100 µM was more than 5 °C.

With `COc1ncnc(C2CC2)c1-c1ncc2cc(C(=O)N[C@H](C)CCO)n(Cc3ccc(-c4nc(C(F)(F)F)cn4C(C)C)cc3)c2n1` [Example 83, (R)-2-(4-cyclopropyl-6-methoxypyrimidin-5-yl)-N-(4-hydroxybutan-2-yl)-7-(4-(1-isopropyl-4-(trifluoromethyl)-1H-imidazol-2-yl)benzyl)-7H-pyrrolo[2,3-d]pyrimidine-6-carboxamide], the GI50 in experiment [1] is less than 100 nM. Further, the ΔTm at 100 µM in experiment [2] was more than 5 °C.

Take `COc1ncnc(C2CC2)c1-c1ncc2cc(C(=O)N[C@H](C)C(F)(F)F)n(Cc3ccc(-c4nc(C(F)(F)F)cn4C(C)C)cc3)c2n1` [Example 85, (R)-2-(4-cyclopropyl-6-methoxypyrimidin-5-yl)-7-(4-(1-isopropyl-4-(trifluoromethyl)-1H-imidazol-2-yl)benzyl)-N-(1,1,1-trifluoropropan-2-yl)-7H-pyrrolo[2,3-d]pyrimidine-6-carboxamide]: in experiment [1], the GI50 lay within 100 to 500 nM. Moreover, the ΔTm at 100 µM in experiment [2] was more than 5 °C.
